# Tests used:
# Assay type in all cases: physicochemical
# [1] = Stability of 1.25 mM furimazine in 50% ethanol and 50% propylene glycol with or without 225 mM ATT, in the presence of light, HPLC and Arrhenius plots; conditions: for relative peak area percentage at 262 nm: in the presence of light
# Protocol: The stability of furimazine in the presence and absence of ATT was measured over time at different temperatures. This study was conducted in the presence of light. Specifically, 1.25 mM furimazine was present in a solution of 50% ethanol and 50% propylene glycol (i.e., the solution without ATT) or a solution of 50% ethanol and 50% propylene glycol with 225 mM ATT (i.e., the solution with ATT). […]
# Following incubation, high performance liquid chromatography (HPLC) was utilized to identify the components of the respective solutions at each time point. Specifically, an Agilent 1100 HPLC instrument was used and equipped with a quaternary pump, thermostatted autosampler and column compartment, and a G1311B diode-array detector. The column used was a Synergi-MAX-RP (Phenomenex, Torrance, Calif.) 100 AÅ 50×4.6 2.5 μm. The run on the HPLC was a gradient run with 0.1% TFA in water and acetonitrile. Absorbance was measured at 262 nanometers (nm). Standards of furimazine and its known degradants were run to confirm both the retention time and absorbance trace. 5 μl of each solution was injected and the retention time of furimazine at room temperature was 5.1 minutes.
# The results of the HPLC analysis are shown below in Tables 10 and 11 and FIGS. 4A and 4B, in which the values are reported as relative peak area percentage at 262 nm (i.e., the lamba max of the substrate). […] In each of FIGS. 4A and 4B, diamond is 1.25 mM furimazine incubated over time with or without 225 mM ATT, respectively, at −20° C., triangle is 1.25 mM furimazine incubated over time with or without 225 mM ATT, respectively, at 20° C., star is 1.25 mM furimazine incubated over time with or without 225 mM ATT, respectively, at 40° C., and cross is 1.25 mM furimazine incubated over time with or without 225 mM ATT, respectively, at 60° C.
# Additionally, Arrhenius plots were generated for furimazine in the presence and absence of ATT to calculate the half-life of furimazine at various temperatures. The Arrhenius equation is as follows: […]
# In FIG. 5, the slope was −10831.4, the intercept was 31.3561, and R^2 was 0.9813.
# In FIG. 6, the slope was −10106.2, the intercept was 30.1809, and R^2 was 0.9984.
# [2] = Photostability of 1.25 mM furimazine in 50% propylene glycol:50% ethanol with or without 225 mM ATT, HPLC; conditions: for 10% loss / 50% loss: in the light
# Protocol: Specifically, a 2× stock solution of ATT in 50% propylene glycol:50% ethanol (v/v) was prepared, in which the final concentration of ATT was 64.4 mg/mL. A 2× stock solution of furimazine in 50% propylene glycol:50% ethanol (v/v) was also prepared, in which the final concentration of furimazine was 0.95 mg/mL. In one vial, the 2×ATT stock solution was diluted 1:1 in the 2×furimazine stock solution to create a solution containing 225 mM ATT and 1.25 mM furimazine. In a second vial, the 2×furimazine stock solution was diluted 1:1 in 50% propylene glycol:50% ethanol (v/v) to create a control solution without the additive ATT (i.e., “no additive furimazine” control) and containing 1.25 mM furimazine.
# The content of each vial was dispensed into separate, clear HPLC vials with insert and these HPLC vials were placed at room temperature (i.e., about 20° C.) in the light (i.e., in the presence of overhead fluorescent light) and at 40° C. in the light. There was one HPLC vial per time point for each temperature.
# Stability was measured by HPLC with 5 μL injection and detection at 262 nm. In each chromatogram, the area of the furimazine peak was determined. Stability curves were generated by plotting the area (10^6) vs. time (days) and are shown in FIGS. 13A and 13B for room temperature and 40° C., respectively.
# [3] = Stability of 1.25 mM furimazine in DMSO with or without 225 mM ATT, HPLC; conditions: room temperature, 40° C., and 60° C., in the presence of light
# Protocol: To further examine the stabilization of furimazine by ATT, stability of furimazine was measured at room temperature, 40°, and 60° C. in a different organic solvent, namely DMSO. This study was performed in the presence of light.
# Specifically, a 2× stock solution of ATT in DMSO was prepared, in which the final concentration of ATT was 64.4 mg/mL. A 2× stock solution of furimazine in DMSO was also prepared, in which the final concentration of furimazine was 0.95 mg/mL. In one vial, the 2× ATT stock solution was diluted 1:1 in the 2× furimazine stock solution to create a solution containing 225 mM ATT and 1.25 mM furimazine. In a second vial, furimazine was diluted 1:1 in DMSO to create a control solution without the additive ATT (i.e., “no additive furimazine” control) and containing 1.25 mM furimazine.
# The content of each vial was dispensed into separate, clear HPLC vials with insert and these HPLC vials were placed at room temperature (i.e., about 20° C.), 40° C., and 60° C. There was one HPLC vial per time point for each temperature.
# Stability was measured by HPLC with 5 μL injection and detection at 262 nm. In each chromatogram, the area percentage of furimazine was determined.
smiles,measurement,setting,value
"O=c1c(Cc2ccco2)nc2c(Cc3ccccc3)[nH]c(-c3ccccc3)cn1-2 [Furimazine, furimazine]",relative peak area percentage at 262 nm,"[1]; 40° C., 0 days",89.7%
same,relative peak area percentage at 262 nm,"[1]; 40° C., 1 day",93.8%
same,relative peak area percentage at 262 nm,"[1]; 40° C., 5 days",65%
same,relative peak area percentage at 262 nm,"[1]; 40° C., 8 days",50.1%
same,relative peak area percentage at 262 nm,"[1]; 40° C., 14 days",27%
same,relative peak area percentage at 262 nm,"[1]; 40° C., 30 days",3.5%
same,relative peak area percentage at 262 nm,"[1]; 40° C., 90 days",0%
same,relative peak area percentage at 262 nm,"[1]; 60° C., 0 days",89.7%
same,relative peak area percentage at 262 nm,"[1]; 60° C., 1 day",70.1%
same,relative peak area percentage at 262 nm,"[1]; 60° C., 5 days",1.3%^
same,relative peak area percentage at 262 nm,"[1]; 60° C., 8 days",0%
same,relative peak area percentage at 262 nm,"[1]; 60° C., 14 days",0%
same,relative peak area percentage at 262 nm,"[1]; 60° C., 30 days",0%
same,relative peak area percentage at 262 nm,"[1]; 60° C., 90 days",0%
same,relative peak area percentage at 262 nm,"[1]; RT (20° C.), 0 days",89.7%
same,relative peak area percentage at 262 nm,"[1]; RT (20° C.), 1 day",97.2%
same,relative peak area percentage at 262 nm,"[1]; RT (20° C.), 5 days",93.8%
same,relative peak area percentage at 262 nm,"[1]; RT (20° C.), 8 days",91.7%
same,relative peak area percentage at 262 nm,"[1]; RT (20° C.), 14 days",86.7%
same,relative peak area percentage at 262 nm,"[1]; RT (20° C.), 30 days",74.8%
same,relative peak area percentage at 262 nm,"[1]; RT (20° C.), 90 days",27.1%
same,Arrhenius plot intercept,[1]; decomposition of furimazine,30.1809
same,Arrhenius plot slope,[1]; decomposition of furimazine,−10106.2
same,relative peak area percentage at 262 nm,"[1]; −20° C., 0 days",89.7%
same,relative peak area percentage at 262 nm,"[1]; −20° C., 1 day",98.3%
same,relative peak area percentage at 262 nm,"[1]; −20° C., 5 days",96.9%
same,relative peak area percentage at 262 nm,"[1]; −20° C., 8 days",98.2%
same,relative peak area percentage at 262 nm,"[1]; −20° C., 14 days",97.7%
same,relative peak area percentage at 262 nm,"[1]; −20° C., 30 days",98.3%
same,relative peak area percentage at 262 nm,"[1]; −20° C., 90 days",95.3%
same,10% loss,[2]; 40° C.,0.4 days
same,50% loss,[2]; 40° C.,3.6 days
same,10% loss,[2]; room temperature,0.5 days
same,50% loss,[2]; room temperature,2.1 days
"Cc1n[nH]c(=S)[nH]c1=O [ATT, 6-methyl-3-thioxo-3,4-dihydro-1,2,4-triazin-5(2H)-one]",stabilization of furimazine in DMSO against decomposition,[3],stabilized furimazine in DMSO against decomposition at different temperatures
same,stabilization of furimazine against decomposition,"[1]; 225 mM ATT, over time at different temperatures",stabilized furimazine against decomposition over time at different temperatures
same,stabilization of furimazine against decomposition in the presence of light,"[2]; 225 mM ATT, room temperature and 40° C.",stabilized furimazine against decomposition in the presence of light at different temperatures
